Experimental data published in patent US4079130A, “Antidepressant phenylazoimidazoles” (The Dow Chemical Company, priority 1977, dated 1978).
Like-named read-outs stand apart in the source and are kept apart here.

Assays:
mice [1] = assay: Blocking of isolation-induced aggression in mice (antianxiety activity); assay type: in vivo; details: for ED50: Mus musculus, ip, intraperitoneal, 30 min before pairing, doses 10.0, 21.5, 46.4 mg/kg
Protocol: Antianxiety agents tend to block isolation-induced aggression in mice. Aggression was established in untrained mice by isolating them in individual cages for a period of four weeks. At the end of that period, the mice were paired for three minutes on three test days within one week to establish the absence or presence of aggression. During pairing, one mouse was always in the home cage, and the other was the intruder. […] On test days, each dose of test drug was administered by intraperitoneal injection to five pairs of mice; five additional pairs received only the vehicle and served as controls. Each drug was tested at three doses 10.0 mg, 21.5 mg, and 46.4 mg per kilogram of body weight. Thirty minutes after injection, the intruder was placed in the home cage of his opponent, and aggression was recorded as absent or present. When aggression was present, the intruder was removed immediately so that dominance was not established. Using the same procedure as employed in Examples 15 and 16, ED50 's were established for each compound.

mice [2] = assay: Protection from reserpine-induced depression (ptosis) in mice (antidepressant activity); assay type: in vivo; details: for antidepressant activity (in words): under the conditions of the demonstration; for ED50: Mus musculus
Protocol: Separate groups of mice and the same origin and past history (5 mice per group) were administered 2-((2-fluorophenyl)azo)-1H-imidazole (Example 3) in an aqueous carrier. Different groups were administered the compound by intraperitoneal injection at various dosage rates. Thirty minutes after the administration of the test compound, the mice were administered reserpine at a dosage rate of 2.5 milligrams per kilogram by intraperitoneal injection. Separate groups of similar mice were similarly administered 2.5 milligrams of reserpine per kilogram 30 minutes after administration of various dosages of the known antidepressant. The mice were then observed for 45 minutes for symptoms of reserpine-induced depression.
Protection from reserpine-induced depression is indicated by the absence of the characteristic ptosis.
The results were employed to calculate the dose effective to protect 50 percent of the mice (ED50) by classical, statistical procedures.
The procedure of Example 15 was repeated using oral administration of 2-((2-fluorophenyl)azo)-1H-imidazole (Example 3) instead of intraperitoneal injection.
Using the general procedure outlined above, the ED50 's were calculated for some of the other imidazoles herein disclosed.

[3] = Acute toxicity, 50 percent lethal dose (LD50); details: mouse, in vivo
[4] = acute, Table II, route not given, read-out: Acute Toxicity LD50
[5] = ip, intraperitoneal, 30 min before reserpine 2.5 mg/kg i.p., observed 45 min, read-out: Intraperitoneal ED50 (dose effective to protect 50 percent of the mice)
[6] = oral, before reserpine 2.5 mg/kg i.p., read-out: Oral ED50

Q: With `O=[N+]([O-])c1ccccc1N=Nc1ncc[nH]1` [Example 8, 2-((2-nitrophenyl)azo)-1H-imidazole] as the compound, how does the ED50 (mice [1]) read?
A: 27.1 mg/kg

Q: What about the “antidepressant activity (in words)” value (mice [2]) of the same compound?
A: active as an antidepressant

Q: Which LD50 [3, 4] does the source give for `Clc1ccccc1N=Nc1ncc[nH]1` [Example 1, 2-((2-chlorophenyl)azo)-1H-imidazole] here?
A: > 562 mg/kg

Q: And the ED50 (mice [2]; [5])?
A: 20 mg/kg

Q: What about the ED50 (mice [2]; [6]) of the same compound?
A: 23 mg/kg

Q: What does the source list for `Cc1ccc(N=Nc2ncc[nH]2)cc1` [Example 12]?
A: ED50 (mice [1]): 28.7 mg/kg; antidepressant activity (in words) (mice [2]): essentially inactive as antidepressant agents

Q: With `Brc1ccccc1N=Nc1ncc[nH]1` [Example 6] as the compound, how does the ED50 (mice [1]) read?
A: 28.7 mg/kg

Q: And the LD50 ([3]; read-out: Acute Toxicity LD50)?
A: > 562 mg/kg

Q: And the ED50 (mice [2]; [5])?
A: 23 mg/kg

Q: What about the ED50 (mice [2]; [6]) of the same compound?
A: 79 mg/kg

Q: What does the source list for `Clc1ccc(N=Nc2ncc[nH]2)cc1` [Example 14, 2-((4-chlorophenyl)azo)-1H-imidazole]?
A: ED50 (mice [1]): 4.3 mg/kg; antidepressant activity (in words) (mice [2]): essentially inactive as antidepressant agents

Q: Which ED50 (mice [1]) does the source give for `c1ccc(N=Nc2ncc[nH]2)cc1` [Example 4] here?
A: 27.1 mg/kg

Q: What about the LD50 ([3]; read-out: Acute Toxicity LD50) of the same compound?
A: 316 mg/kg

Q: What about the ED50 (mice [2]; [5]) of the same compound?
A: 20 mg/kg

Q: What about the ED50 (mice [2]; [6]) of the same compound?
A: 24 mg/kg

Q: With `N#Cc1ccccc1N=Nc1ncc[nH]1` [Example 9] as the compound, how does the ED50 (mice [1]) read?
A: 12.6 mg/kg

Q: And the LD50 ([3]; read-out: Acute Toxicity LD50)?
A: 147 mg/kg

Q: And the ED50 (mice [2]; [5])?
A: 20 mg/kg

Q: What about the ED50 (mice [2]; [6]) of the same compound?
A: 19 mg/kg

Q: Which ED50 (mice [1]) does the source give for `Clc1cccc(N=Nc2ncc[nH]2)c1` [Example 11] here?
A: 24.5 mg/kg

Q: What about the LD50 ([3]; read-out: Acute Toxicity LD50) of the same compound?
A: 178 mg/kg

Q: And the ED50 (mice [2]; [5])?
A: 24 mg/kg

Q: And the ED50 (mice [2]; [6])?
A: 32 mg/kg

Q: Which results are given for `Cc1cccc(N=Nc2ncc[nH]2)c1` [Example 10, 2-((3-methylphenyl)azo)-1H-imidazole]?
A: ED50 (mice [1]): 5.84 mg/kg; LD50 [3, 4]: 316 mg/kg; ED50 (mice [2]; [5]): 27 mg/kg

Q: Which results are given for `Cl.Clc1ccccc1N=Nc1ncc[nH]1` [Example 2, 2-((2-chlorophenyl)azo)-1H-imidazole hydrochloride]?
A: ED50 (mice [1]): 13.3 mg/kg; LD50 [3, 4]: 316 mg/kg; ED50 (mice [2]; [5]): 17 mg/kg; ED50 (mice [2]; [6]): 32 mg/kg

Q: With `Ic1ccccc1N=Nc1ncc[nH]1` [Example 7] as the compound, how does the ED50 (mice [1]) read?
A: 31.6 mg/kg

Q: And the LD50 ([3]; read-out: Acute Toxicity LD50)?
A: > 562 mg/kg

Q: What about the ED50 (mice [2]; [6]) of the same compound?
A: 75 mg/kg

Q: What does the source list for `Fc1ccccc1N=Nc1ncc[nH]1` [Example 3, 2-((2-fluorophenyl)azo)-1H-imidazole]?
A: ED50 (mice [1]): 23.7 mg/kg; selectivity ratio ([3]; ip, intraperitoneal LD50 / intraperitoneal ED50 (reserpine test), read-out: therapeutic index LD50/ED50): 13.4; LD50 ([3]; ip, intraperitoneal, acute, read-out: intraperitoneal acute 50 percent lethal dose (LD50)): 147 mg/kg; ED50 (mice [2]; ip, read-out: Intraperitoneal ED50 (dose effective to protect 50 percent of the mice)): 11 mg/kg; ED50 (mice [2]; po, read-out: Oral ED50): 11 mg/kg

Q: What does the source list for `Cc1ccccc1N=Nc1ncc[nH]1` [Example 5]?
A: antianxiety activity (in words) (mice [1]; isolation-induced aggression in mice): very weak activity; ED50 (mice [2]; [5]): 42 mg/kg; ED50 (mice [2]; [6]): 43 mg/kg

Q: What does the source list for `Cc1ccc(N=Nc2ncc[nH]2)c(Cl)c1` [Example 13]?
A: ED50 (mice [1]): 25.5 mg/kg; antidepressant activity (in words) (mice [2]): essentially inactive as antidepressant agents
